{"source": "patent US20060189811A1", "about": "“Process for producing 1,2,4-triazole compound and intermediate therefor” (FUJIYAKUHIN CO., LTD., priority 2004, published 2006)", "tested_on": "serum uric acid level", "test": "Serum uric acid level-lowering action", "assay_type": "in vivo", "settings": "male wister rats, oral 0.3 mg/5 mL/Kg in 0.5% MC, blood collected six hours after administration, vs MC group", "method": "Serum Uric Acid Level-Lowering Action\nTo male wister rats of 7 weeks old (4 rats per group) was orally administered compulsorily a test substance suspended in 0.5% aqueous solution of methyl cellulose (MC) in such an amount as to provide 0.3 mg/5 mL/Kg by using a stomach sonde. Six hours after the administration of the test substance, a blood sample was collected from the orbital vein. After allowing to stand at room temperature for 1 hour, the blood sample was centrifuged at 2000×g for 10 minutes to collect serum. […] Lowering rate of serum uric acid level (%)=(1-average serum uric acid level of the group administered with test compound/average serum uric acid level of the group administered with MC)×100", "data": [{"smiles": "Cc1ccc(S(=O)(=O)O)cc1.N#Cc1cc(-c2nc(-c3ccncc3)n[nH]2)ccn1", "note": "[Example 2, 5-(2-cyano-4-pyridyl)-3-(4-pyridyl)-1,2,4-triazole p-toluenesulfonate]", "values": [{"measurement": "Lowering rate of serum uric acid level", "value": 51.1, "unit": "%"}]}]}
